The values below come from the supplement of paper PMC10290057.

Test [1] has as its system HCT116. Nature of the test: AC50 cell viability (CellTiter-Glo); higher = less potent. Conditions: 48 h. A general note: ATP-based viability assays read luminescence as a measure of living cells.
The test system of test [2] is HCT116. The test can be described thus: efficacy (fitted maximal change in viability relative to DMSO control); higher = less cytotoxic (negative = loss of viability). Conditions: 48 h.

SMILES strings stand for the structures. Where a name gives a salt, the structure may show the parent alone.
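Throughout, for AC50 cell viability (CellTiter-Glo): HCT116 colorectal carcinoma cells screened at five concentrations per compound, luminescent viability scaled between DMSO wells and empty wells on each plate, curves fitted per compound.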
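Throughout, for efficacy (fitted maximal change in viability relative to DMSO control): Luminescence-based viability readout, five doses per compound, normalized against on-plate DMSO and empty-well controls, followed by dose-response curve fitting for every drug.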

Compound `COC(=O)Nc1ccc(-c2nc(N3CCOCC3)c3cnn(C4CCN(Cc5cccnc5)CC4)c3n2)cc1` [WYE-687] came in with an AC50 cell viability in test [1] of 13.2 µM. In test [2], the efficacy is -135%.

Turning to `C=CC(=O)Nc1cccc(Oc2nc(Nc3ccc(N4CCN(C)CC4)cc3)ncc2Cl)c1` [WZ-3146], the AC50 cell viability in test [1] was found to be 4.17 µM. In addition, in test [2], the efficacy was -101%.

Take `C=CC(=O)Nc1cccc(Oc2nc(Nc3ccc(N4CCN(C)CC4)cc3OC)ncc2Cl)c1` [WZ-4002]: the AC50 cell viability in test [1] stood at 11.8 µM. The efficacy in test [2] was -96.5%.

Regarding `CCC(=O)Nc1cccc(Oc2nc(Nc3ccc(N4CCN(C)CC4)cc3OC)ncc2Cl)c1` [WZ-4003], the AC50 cell viability in test [1] is 6.61 µM. Further, in test [2], the efficacy was -65.7%.

`C=CC(=O)Nc1cccc(Sc2nc(Nc3ccc(N4CCN(C)CC4)cc3)ncc2Cl)c1` [WZ-8040] had an AC50 cell viability in test [1] of 7.42 µM. For the same compound, the efficacy in test [2] was -108%.

`C[C@H]([C@H]1C\C(=C(CO)/C(=O)O1)C)[C@H]2CC[C@H]3[C@@H]4C[C@H]5O[C@]56[C@@H](O)\C=C/C(=O)[C@]6(C)[C@H]4CC[C@]23C` [Withaferin A] showed an AC50 cell viability in test [1] of 1.66 µM. Moreover, the efficacy in test [2] was -102%.

`CCN1CCC(n2cc(CNc3cc(Cl)c4ncc(C#N)c(Nc5ccc(F)c(Cl)c5)c4c3)nn2)CC1` [Wyeth Cot Inhibitor 2]: the AC50 cell viability in test [1] stood at 20.9 µM. Also, the efficacy in test [2] is -98.5%.

In test [1], `COc1cc2c(Nc3ccc(Cl)c(Cl)c3F)ncnc2cc1OC[C@@H]1C[C@@H]2CN(C)C[C@@H]2C1` [XL647] yielded an AC50 cell viability of 11.8 µM. In test [2], the efficacy was -113%.

On to `ClC1=CC=C2OC3=C(\N=C(NC3=O)\[C@@H]4CCCN4)C2=C1` [XL 413 hydrochloride], for which, in test [1], the AC50 cell viability turned out to be 14.8 µM. Besides, the efficacy in test [2] is -47.6%.

With `CC(C)c1cc(CNc2nc(Nc3cc(C4CC4)[nH]n3)cc(N3CCN(C)CC3)n2)on1` [XL-228], the AC50 cell viability in test [1] was determined as 0.295 µM. Further, in test [2], the efficacy was -64%.

For the compound `Cc1c(C(=O)N2CCOc3ccc(-c4ccc(N)nc4)cc3C2)ccc([S+](C)(=O)[O-])c1F` [XL-388], the AC50 cell viability in test [1] turned out to be 10.5 µM. Also, the efficacy in test [2] is -65.5%.

For `COCCOC(=O)N1CCN([S+](=O)([O-])c2cc(F)c(Oc3ccc(Cl)cc3)c(F)c2)C(C(=O)NO)C1` (stereo not drawn) [XL-784], the AC50 cell viability in test [1] worked out at 10.5 µM. In addition, the efficacy in test [2] is -92.6%.

Regarding `CC[C@@H](C)Nc1cc(C(=O)NC2CC3CCC(C2)N3c2ccc(C(=O)C3CC3)cn2)c(C)cc1C(N)=O` (stereo partly drawn) [XL-888], in test [1], the AC50 cell viability was determined as 0.118 µM. For the same compound, the efficacy in test [2] was -56.5%.

Compound `CC[C@@H](C)Nc1cc(C(=O)NC2CC3CC[C@@H](C2)N3c2ccc(C(=O)C3CC3)cn2)c(C)cc1C(N)=O` (stereo partly drawn) [XL-888] yielded an AC50 cell viability in test [1] of 0.0833 µM. Further, the efficacy in test [2] was -59.7%.

As to `COc1cc(N2CCN(C)CC2)ccc1Nc1ncc2c(n1)N(C)c1ccccc1C(=O)N2` [XMD8-87], in test [1], the AC50 cell viability is 18.6 µM. In addition, the efficacy in test [2] is -92.7%.

In turn, `CCOc1cc(N2CCC(O)CC2)ccc1Nc1ncc2c(n1)N(C)c1ccccc1C(=O)N2C` [XMD8-92] displayed an AC50 cell viability in test [1] of 8.33 µM. The efficacy in test [2] is -80.7%.

The compound `COc1cc(N2CCN(C)CC2)ccc1Nc1ncc2c(n1)N(C)c1ccccc1C(=O)N2C` [XMD17-109 (ERK5-IN-1)] registered an AC50 cell viability in test [1] of 9.34 µM. Moreover, the efficacy in test [2] was -89.1%.

`CCOc1cc(C(=O)N2CCC(N3CCN(C)CC3)CC2)ccc1Nc1ncc2c(n1)N(C1CCCC1)c1ccccc1C(=O)N2C` [XMD17-109] came in with an AC50 cell viability in test [1] of 7.42 µM. The efficacy in test [2] is -104%.

`CN1C(=O)c2sccc2N(C)c2nc(Nc3ccc([S+](N)(=O)[O-])cc3)ncc21` [XMU-MP-1] displayed an AC50 cell viability in test [1] of 3.32 µM. In test [2], the efficacy was -99.2%.

As to `Cc1cc(C(=O)N2CCN(c3cccc(Cl)c3)CC2)n(-c2ccccc2)n1` [XRP-44X], the AC50 cell viability in test [1] came out at 2.95 µM. Moreover, the efficacy in test [2] was -62.8%.

Consider `C=C1C(=O)O[C@H]2C[C@H](C)C(/C=C/C(C)=O)=CC[C@H]12` [Xanthatin], for which, in test [1], the AC50 cell viability came to 2.63 µM. For the same compound, the efficacy in test [2] was -76%.

Take `COc1ccc(C(=O)CC2(O)C(=O)Nc3c(Cl)ccc(Cl)c32)cc1` (stereo not drawn) [YK-4-279]: in test [1], the AC50 cell viability is 1.18 µM. Moreover, in test [2], the efficacy was -57.1%.

Consider `COc1ccc(N2C(=O)N(c3c(C)cccc3Cl)Cc3cnc(Nc4ccc(C5CCN(C)CC5)cc4OC)nc32)nc1` [YKL-05-099], for which the AC50 cell viability in test [1] came out at 10.5 µM. In addition, the efficacy in test [2] is -99.4%.

With `CN(C)c1ccc2cc(C(=O)N[C@@H](CCCNC(=N)CCl)C(=O)NCc3ccccc3)ccc2c1` [YW3-56], the AC50 cell viability in test [1] is 20.9 µM. For the same compound, the efficacy in test [2] was -56.2%.

Compound `FC(F)c1nc2ccccc2n1-c1nc(N2CCOCC2)nc(N2CCOCC2)n1` [ZSTK-474] returned an AC50 cell viability in test [1] of 0.742 µM. Also, the efficacy in test [2] was -58.2%.

`CC1(CN2CCC(n3c(=O)[nH]c4ccccc43)CC2)OCc2ccccc2-n2cccc21` (stereo not drawn) [Zaldaride maleate] came in with an AC50 cell viability in test [1] of 20.9 µM. In addition, in test [2], the efficacy was -74.1%.

`Cl.Cl.Cl.O[C@@H](COc1cccc2ncccc12)CN1CCN([C@@H]2c3ccccc3[C@@H]3[C@H](c4ccccc42)C3(F)F)CC1` [Zosuquidar trihydrochloride]: the AC50 cell viability in test [1] is 16.6 µM. The efficacy in test [2] was -97%.

With `CC1(C)CC\C2=C(/O1)C3=C(C=CC=C3)C(=O)C2=O` [beta-Lapachone], the AC50 cell viability in test [1] was 14.8 µM. For the same compound, the efficacy in test [2] was -103%.

In test [1], `CC1CCN(c2cc(N3CCN(C)CC3)ccc2NC(=O)c2cc(C#N)c[nH]2)CC1` [c-FMS Inhibitor] came in with an AC50 cell viability of 7.42 µM. Besides, the efficacy in test [2] was -34%.
